Source: article PMC3547949, “The Immunosuppressive Agent Mizoribine Monophosphate Is an Inhibitor of the Human RNA Capping Enzyme” (PLoS ONE, 2013)
Like-named read-outs stand apart in the source and are kept apart here.

Assays:
[1] = target: T1, human RNA capping enzyme (HCE) (Homo sapiens, UniProt O60942); experiment: Complete RNA capping reaction (RTase+GTase) of a 5′-triphosphate RNA; assay type: biochemical
T1 construct: full-length bifunctional HCE protein (amino acid 1–597); 6-His (N); made in house; host or cells: Escherichia coli BL21(DE3), pET28a
T1 sequence (O60942 whole entry): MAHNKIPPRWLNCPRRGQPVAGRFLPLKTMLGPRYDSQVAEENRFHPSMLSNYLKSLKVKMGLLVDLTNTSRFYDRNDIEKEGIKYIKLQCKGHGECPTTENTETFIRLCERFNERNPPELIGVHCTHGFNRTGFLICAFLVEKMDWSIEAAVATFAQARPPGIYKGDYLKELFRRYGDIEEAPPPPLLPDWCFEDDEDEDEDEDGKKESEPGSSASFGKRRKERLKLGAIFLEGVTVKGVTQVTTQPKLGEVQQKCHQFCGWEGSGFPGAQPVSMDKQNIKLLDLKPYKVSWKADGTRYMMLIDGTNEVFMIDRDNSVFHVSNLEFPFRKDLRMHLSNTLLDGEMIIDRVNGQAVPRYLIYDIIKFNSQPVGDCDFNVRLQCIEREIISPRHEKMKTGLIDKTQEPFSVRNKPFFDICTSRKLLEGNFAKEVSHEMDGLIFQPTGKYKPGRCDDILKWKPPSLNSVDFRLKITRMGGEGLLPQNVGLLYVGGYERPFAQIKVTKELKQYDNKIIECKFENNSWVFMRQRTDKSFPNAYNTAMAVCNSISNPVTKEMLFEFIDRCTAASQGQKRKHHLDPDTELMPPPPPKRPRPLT
Procedure: Reaction mixtures containing 5 µM [α-^32P]GTP, 5 µM of 5′-triphosphate RNA, 0.1 µM HCE, 50 mM Tris-HCl, pH 7.5, 5 mM MgCl2, 500 µM DTT, 0.5 ng/µl pyrophosphatase (Roche), and 1 U of RNAse Out (Invitrogen) were incubated for 15 min at 37°C. Reactions were stopped by the addition of 20 µl of phenol-chloroform. 10 µl of loading dye (97% formamide) was added to the aqueous phase and submitted to electrophoresis on a denaturing 10% polyacrylamide gel. Formation of the ^32P-radiolabeled GpppRNA was quantified with a PhosphorImager.
In order to investigate if MZP could inhibit the RNA capping reaction, we initially addressed its impact on the complete RNA capping reaction (RTase+GTase). A cold 5′-triphosphate RNA was incubated in the presence of HCE, [α-^32P]GTP, magnesium and increasing concentrations of MZP. […] To ensure that the inhibition by MZP was specific, the reaction was performed in the presence of increasing concentrations of GMP which is chemically related to MZP.

[2] = target: T2, HCE (Homo sapiens, UniProt O60942); experiment: MZP transfer onto an acceptor RNA (cap donor substrate test); assay type: biochemical; settings: 2 mM MZP, 2 h 37°C
T2 construct: full-length bifunctional HCE protein (amino acid 1–597); 6-His (N); made in house; host or cells: Escherichia coli BL21(DE3), pET28a
T2 sequence (O60942 whole entry): as above
Procedure: Reaction mixtures containing 50 mM Tris-HCl, pH 7.5, 5 mM MgCl2, 500 µM DTT, 0.7 ng/µl pyrophosphatase (Roche), and 1 U of RNAse Out (Invitrogen), 1 µM of 5′-diphosphate RNA substrate (32 nt) harboring a α-^32P-radiolabeled 5′-phosphate, 0.2 µM HCE were incubated in absence or in presence of 2 mM GTP or MZP for 2 h at 37°C. The reaction pH was adjusted to 5.2 with 50 mM NaOAc followed by the addition of 5 µg of Nuclease P1 and incubation at 37°C for 60 min. The digestion were further adjusted with 50 mM Tris-HCl to pH 8.0, and digested with 1 U of alkalie phosphatase (Roche) for 30 min at 37°C. The reaction products were analyzed by thin-layer chromatography (TLC) on a polyethyleneimine-cellulose plate developed with 0.4 M ammonium sulfate.
Supplementary file pone.0054621.s002.tif: Figure S2 MZP as a potential cap donor substrate for HCE. A 5′-diphosphate acceptor RNA initiating with a [α-^32P] guanosine was incubated in absence (lane 1) or in presence of MZP (lane 2) or GTP (lane 3) and HCE. The capping reaction was sequentially submitted to nuclease P1 then alkaline phosphatase prior to analysis by TLC on a polyethyleneimine-cellulose plate. An autoradiogram of the plate is shown. The locations of the origin and GpppG product are indicated by arrows (right). (TIF) Click here for additional data file.

[3] = target: T3, Ceg1 (Saccharomyces cerevisiae, UniProt Q01159); experiment: Complete GTase reaction, yeast GTase; assay type: biochemical; settings: 0,5 µM Ceg1
T3 sequence (Q01159 1-459): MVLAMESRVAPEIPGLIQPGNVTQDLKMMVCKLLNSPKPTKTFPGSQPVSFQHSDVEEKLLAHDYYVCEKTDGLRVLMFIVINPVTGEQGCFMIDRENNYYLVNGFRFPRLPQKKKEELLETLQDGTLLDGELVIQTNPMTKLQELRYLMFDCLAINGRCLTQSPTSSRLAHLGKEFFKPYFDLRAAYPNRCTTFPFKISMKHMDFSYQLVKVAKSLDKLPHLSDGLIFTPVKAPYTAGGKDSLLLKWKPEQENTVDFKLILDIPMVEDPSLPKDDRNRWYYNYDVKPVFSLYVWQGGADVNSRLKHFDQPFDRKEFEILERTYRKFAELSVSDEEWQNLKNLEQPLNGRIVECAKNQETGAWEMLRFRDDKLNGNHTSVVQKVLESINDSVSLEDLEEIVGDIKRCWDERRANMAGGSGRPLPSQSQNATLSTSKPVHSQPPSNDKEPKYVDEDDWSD

[4] = system: HCE-G229–597 (GTase domain of HCE); experiment: Complete GTase reaction with isolated GTase domain; assay type: biochemical, human
[5] = target: T2, HCE; experiment: Enzyme-GMP (EpG) complex formation, first GTase step; assay type: biochemical
Procedure: The enzyme-GMP complex formation assays were carried out for 3 min at 37°C in a buffer containing 1 µM [α-^32P]GTP, 4 µM HCE, 50 mM Tris-HCl, pH 7.5, 5 mM MgCl2, 500 µM DTT, 0.5 ng/µl pyrophosphatase (Roche), and various concentration of MZP (as indicated). The reactions were stopped by the addition of 5 µl of loading dye (50 mM EDTA, 2% β-mercaptoethanol, 1% SDS) and analyzed on a 12% polyacrylamide gel containing 0.1% SDS. The formation of the radiolabeled HCE-[α-^32P]GMP covalent complex was quantified with a PhosphorImager. Similar experiments were conducted using only the GTase domain of HCE (HCE-G229–597). Alternatively, equimolar concentrations of MgCl2 to MZP were added to the reaction in addition to the base 5 mM MgCl2 from the buffer (MZP✯Mg^2+).
We next set out to identify which step (if any) of the GTase reaction is more susceptible to MZP inhibition. In order to investigate the inhibitory potency of MZP on HCE-GMP complex formation (first step), HCE was incubated with [α-^32P]GTP, magnesium and increasing concentrations MZP. […] The formation of the EpG covalent complex in single turnover condition was analyzed by SDS-PAGE and quantified by phosphorimaging. […] Nevertheless, MZP inhibition of the EpG complex formation is weak and could not be solely responsible for the global inhibitory potency of MZP.

[6] = target: T4, HCE RTase activity (Homo sapiens, UniProt O60942); experiment: RNA triphosphatase (RTase) assay; assay type: biochemical; settings: MZP up to 10 mM, full-length HCE
T4 construct: full-length bifunctional HCE protein (amino acid 1–597); 6-His (N); made in house; host or cells: Escherichia coli BL21(DE3), pET28a
T4 sequence (O60942 whole entry): as the sequence (O60942 whole entry) above
Procedure: Reaction mixtures containing 50 mM Tris-HCl, pH 7.5, 5 mM MgCl2, 500 µM DTT, 3 µM of γ-^32P-radiolabeled 5′-triphosphate RNA substrate (32 nt), 0.1 µM HCE, and various concentration of MZP (as indicated) were incubated for 10 min at 37°C. The reactions were stopped by the addition of 2 µl of 5 M formic acid. Aliquots of each sample were analyzed on polyethyleneimine-cellulose thin-layer chromatography (TLC) plate, and developed with 0.5 M LiCl and 1 M formic acid. The release of ^32Pi was quantified by scanning the TLC plates with a PhosphorImager.
We next investigated the susceptibility of the RTase domain of HCE to MZP inhibition. To specifically monitor the effect of MZP on the RTase activity, a γ-^32P-radiolabeled 5′-triphosphate RNA was incubated with HCE and magnesium. RTase activity was monitored through the analysis of the ^32Pi product released from the radiolabeled RNA by TLC and autoradiography.

[7] = target: T5, D1R (Vaccinia virus, UniProt P04298); experiment: Complete GTase reaction, vaccinia virus GTase; assay type: biochemical
[8] = target: T6, A103R (Paramecium bursaria Chlorella virus 1, UniProt Q84424); assay type: biochemical, Chlorella virus (PBCV-1)
T6 sequence (Q84424 whole entry, stated change not applied): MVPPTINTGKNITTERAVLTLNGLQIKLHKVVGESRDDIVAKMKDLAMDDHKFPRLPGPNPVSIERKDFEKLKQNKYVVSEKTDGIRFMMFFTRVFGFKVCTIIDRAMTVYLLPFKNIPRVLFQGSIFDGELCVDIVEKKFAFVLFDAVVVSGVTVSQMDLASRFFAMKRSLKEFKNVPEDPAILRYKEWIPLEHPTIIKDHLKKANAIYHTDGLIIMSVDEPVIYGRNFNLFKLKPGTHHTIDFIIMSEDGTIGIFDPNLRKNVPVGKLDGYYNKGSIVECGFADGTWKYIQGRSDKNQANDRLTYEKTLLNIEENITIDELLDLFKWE

[9] = target: T5, D1R; experiment: Enzyme-GMP (EpG) complex formation, vaccinia virus GTase; assay type: biochemical
[10] = target: T3, Ceg1; experiment: Enzyme-GMP (EpG) complex formation, yeast GTase; assay type: biochemical; settings: GTase first step, compared with other GTases
[11] = target: T7, HCE GTase activity (Homo sapiens, UniProt O60942); experiment: Complete two-step RNA guanylyltransferase (GTase) reaction on 5′-diphosphate RNA; assay type: biochemical
T7 construct: full-length bifunctional HCE protein (amino acid 1–597); 6-His (N); made in house; host or cells: Escherichia coli BL21(DE3), pET28a
T7 sequence (O60942 whole entry): as the sequence (O60942 whole entry) above

[12] = system: HCE GTase activity; experiment: as above; assay type: biochemical, human; settings: complete GTase reaction; HCE vs D1R, A103R, Ceg1
[13] = target: T2, HCE; experiment: GMP transfer on a 5′-diphosphate RNA, second GTase step; assay type: biochemical; settings: single turnover
Procedure: Formation of the enzyme-GMP complex was initially performed for 15 min at 37°C in a buffer containing 1.5 µM [α-^32P]GTP, 1 µM HCE, 70 mM Tris-HCl, pH 7.5, 7.5 mM MgCl2, 70 µM DTT, 0.7 ng/µl pyrophosphatase (Roche), and 1 U of RNAse Out (Invitrogen). The transfer reaction was then initiated by adding a 5′-diphosphate RNA (32 nt) to a final concentration of 0.5 µM with various concentration of MZP (as indicated). After 30 sec at 37°C, the transfer reaction was stopped by the addition of 20 µl of phenol-chloroform. 10 µl of loading dye (97% formamide) was added to the aqueous phase and submitted to electrophoresis on a denaturing 10% polyacrylamide gel. The formation of the ^32P-radiolabeled GpppRNA was quantified with a PhosphorImager.
We next investigated if the second step of the GTase reaction could be impaired by MZP. EpG complex formation was allowed to initially form upon incubation of HCE with excess [α-^32P]GTP, magnesium and pyrophosphatase. Next, various concentrations of MZP and a cold 5′-diphosphate RNA were added to initiate the transfer of the [α-^32P]GMP moiety onto the RNA in single turnover condition.

[14] = target: T6, A103R; assay type: biochemical, Chlorella virus (PBCV-1); remark: listed apart in the source
[15] = set-up: method as in PMID 19336917, PMID 15773958, PMID 11896891, PMID 12036371; settings: cited from earlier work
[16] = system: HEK 293T cells; experiment: Inhibition of mRNA cap formation in cells (firefly luciferase reporter); settings: 40 µM or 120 µM mizoribine, all cell lines, versus untreated cells

In the case of Nc1nc2c(ncn2[C@@H]2O[C@H](COP(=O)(O)O)[C@@H](O)[C@H]2O)c(=O)[nH]1 [GMP], the “reduction of RNA capping” value ([1]; GMP concentrations as high as 10 mM) is reported as no more than 25%.
With NC(=O)c1ncn([C@@H]2O[C@H](COP(=O)(O)O)[C@@H](O)[C@H]2O)c1O [MZP, Mizoribine monophosphate] the “use as substrate and transfer onto acceptor RNA” value [2] was “not able to use the MZP as a substrate”, the IC50 [3] was greater than 2000 µM and the “decrease in potency versus full-length HCE” value [4] was 10 fold. The “mechanism of inhibition, EpG formation” value ([5]; Lineweaver-Burk, maximal velocity unaffected by MZP) was “competitive”, the IC50 ([5]; single turnover, 4 µM HCE, 1 µM GTP, 3 min 37°C) was 3000 µM and the “effect on RTase activity” value [6] was “does not affect”. It also gave an IC50 [7] of 500 µM, an IC50 [8] of 2000 µM and an IC50 [9] of 3000 µM. For the same compound, the “inhibition of EpG formation” value [10] was “slightly less affected”, the “mechanism of inhibition, complete GTase reaction” value ([11]; Lineweaver-Burk, Km for GTP independent of MZP concentration) was “non-competitive” and the IC50 ([11]; steady-state, 5′-diphosphate RNA, full-length HCE) was 80 µM. For the same compound, the “difference in susceptibility, HCE versus other GTases” value [12] was 5-to 25 fold, the IC50 ([1]; 0.1 µM HCE, 5 µM GTP, 5 µM 5′-triphosphate RNA, 5 mM MgCl2, 15 min 37°C) was 150 µM and the “impact on GMP transfer to acceptor RNA (second GTase step)” value [13] was “only has a minor impact”. It also gave an IC50 [14] of 750 µM.
For NC(=O)c1ncn([C@@H]2O[C@H](CO)[C@@H](O)[C@H]2O)c1O [mizoribine], the “binding to serum proteins” value [15] is listed as 2.3% and the “effect on reporter protein expression” value [16] is listed as “global reduction in protein expression”.
